Laboratory results taken from patent US12171759B1, “Methods and uses for treating anhedonia” (Xenon Pharmaceuticals Inc., priority 2021, dated 2024).
“And” between values parts separate entries of the source, which are not always exact repeats. Identical values can stand only once. “Also recorded” adds a separate entry of the source.

Tested on: male Long Evans rats
Test: Progressive ratio (PR) schedule of reinforcement for food (Progressive Ratio Test, PRT)
Assay type: in vivo, rat
Set-up: Sess. Duration: unit not given here
Settings: AVG
Procedure: The objective of this study was to test the effect of Compound A (1, 3, or 8 mg/kg, p.o.) on motivation as measured by rats responding for food under a progressive ratio (PR) schedule of reinforcement. Test measures included the total number of lever presses, and number of rewards (food pellets) acquired (break point).
The progressive ratio (PR) task is a cross species translational approach used as measure of motivational performance including as a measure of anhedonia (see, e.g., Hodos W., Science 1961, 134:943-944; Spierling et al., Physiol Behav. 2017, 177:99-106; Radke et al., Pharmacol Biochem Behav. 2015, 129:51-55; Hauser et al., Hormones and Behavior 2009, 56:364-375; Merali et al., Psychopharmacology 2003, 165:413-418; Marchese et al., Int J Neuropsychopharmacology 2013, 16:1611-1621; Karlsson et al., Hippocampus 2018, 28 (7): 512-522: Strauss et al., Schizophr Res. 2016, 170 (1): 198-204; and Gunthorpe et al., Epilepsia 2012, 53 (3): 412-424). In rodent species, the basic test design involves training subjects to lever press for a food reward (45 mg Bioserve pellets) under a schedule in which the number of responses required to achieve a pellet increased for successive reinforcers. The present study used a progression ratio derived from the equation ratio=[5×e^(0.2×reinforcer #)−5], and was as follows: 2, 4, 6, 9, 12, 15, 20, 25, 32, 40, 50, 62, 77, 95, 118, 145, 178, etc. Rats were therefore required to lever press a progressively increasing number of times to gain each successive reward, until reaching a break point, i.e., not meeting the schedule requirement. […] This provided a quantitative measurement of effort the animal would expend for the given reinforcer, which was interpreted as a measure of motivation. Based on the amount of food acquired during a typical test session (e.g., a break point of 10-12, corresponds to 0.45-0.54 g food), responding is limited by the amount of effort the animal is willing to expend for a single food pellet, rather than factors such as satiety.
Rats may be categorized based on differences in PR breakpoint, i.e., “low” and “high” responders. […] Motivational deficits are commonly seen in anhedonia associated with many neuropsychological disorders, such as depression, dementia, and schizophrenia (Lactôt et al., Alzheimer's and Dementia 2017, 13:84-100) and efficacy in treating “low” responder rats is indicative of efficacy in treating more significant or severe anhedonia.
The primary purpose of this proposal was to evaluate the effect of Compound A on motivational performance of Male Long Evans rats under a progressive ratio schedule. A large (N=32) cohort of rats were used and the effect of Compound A was investigated both in all rats, and also a “low” responder subgroup, based on the low tertile (N=11) cohort recorded over 5 days baseline responding prior to study commencement.
Dosage form: Compound A was suspended in 0.5% CMC-Na and 0.1% Tween 80 in purified water and sonicated until fully dissolved. Drug was administered at a volume of 10 mL/kg, orally.
Doses tested: 1, 3, 8 mg/kg.
Pretreatment time: 120 minutes.
Dosage form: D-Amp was suspended in 0.9% saline and sonicated until fully dissolved. Drug was administered at a volume of 1 mL/kg, intraperitoneally.
Pretreatment time: 10 minutes.
Test System: Thirty-two (32) experimentally non-naïve male Long Evans rats were included in the study.
Housing and Management of Test System: Animals were singly housed and maintained on a restricted diet regimen, in which they were fed approximately 18-20 g of standard laboratory chow once per day following the completion of study procedures (between 16:00 h and 18:00 h). Water was available ad-libitum, excluding during training/testing sessions. Animals were maintained on a 12 h/12 h light/dark cycle with all testing conducted during the animals' light cycle. All animal use procedures were performed in accordance with the principles of the Canadian Council on Animal Care (CCAC). […]

[1] = High responder subgroup (N=11), 1 mg/kg p.o.
[2] = High responder subgroup (N=11), 3 mg/kg p.o.
[3] = High responder subgroup (N=11), 8 mg/kg p.o.
[4] = Low responder subgroup (N=11), 1 mg/kg p.o.
[5] = Low responder subgroup (N=11), 3 mg/kg p.o.
[6] = Low responder subgroup (N=11), 3 mg/kg p.o., listed as Cpmd A
[7] = Low responder subgroup (N=11), 8 mg/kg p.o.
[8] = Low responder subgroup (N=11), 8 mg/kg p.o., listed as Cpmd A
[9] = all rats (N = 32), 1 mg/kg p.o., 120 min pretreatment
[10] = all rats (N = 32), 3 mg/kg p.o., 120 min pretreatment
[11] = all rats (N = 32), 3 mg/kg p.o., 120 min pretreatment, listed as Cpmd A
[12] = all rats (N = 32), 8 mg/kg p.o., 120 min pretreatment
[13] = all rats (N = 32), 8 mg/kg p.o., 120 min pretreatment, listed as Cpmd A
[14] = High responder subgroup (N=11), 0.6 mg/kg i.p.
[15] = Low responder subgroup (N=11), 0.6 mg/kg i.p.
[16] = all rats (N = 32), 0.6 mg/kg i.p., 10 min pretreatment

`Cc1cc(N2CCc3cc(F)ccc3C2)cc(C)c1NC(=O)CC(C)(C)C` [Compound A, N-[4-(6-fluoro-3,4-dihydro-1H-isoquinolin-2-yl)-2,6-dimethylphenyl]-3,3-dimethylbutanamide] was tested, and the “Lever Press” value [1] was 707.5, the “Rewards (break point)” value [1] was 14.6 and the “Sess. Duration” value [1] was 21.2. For the same compound, the “Lever Press” value [2] was 623.9, the “Rewards (break point)” value [2] was 14.3 and the “Sess. Duration” value [2] was 24.3. For the same compound, the “Lever Press” value [3] was 700.0, the “Rewards (break point)” value [3] was 14.6 and the “Sess. Duration” value [3] was 20.8. For the same compound, the “Lever Press” value [4] was 141.5, the “Rewards (break point)” value [4] was 8.2 and the “Sess. Duration” value [4] was 15.5. For the same compound, the “Lever Press” value [5] was “selectively increase; also recorded: statistical significance”, the “Rewards (break point)” value [5] was “selectively increase; also recorded: statistical significance” and the “Sess. Duration” value [5] was 23.2. For the same compound, the “Lever Press” value [6] was 272.7, the “Rewards (break point)” value [6] was 10.7 and the “Lever Press” value [7] was “selectively increase; also recorded: statistical significance”. The “Rewards (break point)” value [7] was “selectively increase; also recorded: statistical significance”, the “Sess. Duration” value [7] was 22.6 and the “Lever Press” value [8] was 258.0. The “Rewards (break point)” value [8] was 10.5, the “Lever Press” value [9] was 392.4 and the “Rewards (break point)” value [9] was 11.5. For the same compound, the “Sess. Duration” value [9] was 16.9, the “Lever Press” value [10] was “significant increase; also recorded: significantly increasing; also recorded: statistical significance” and the “Rewards (break point)” value [10] was “significant increase; also recorded: significantly increasing; also recorded: statistical significance”. The “Sess. Duration” value [10] was 22.6, the “Lever Press” value [11] was 439.3 and the “Rewards (break point)” value [11] was 12.5. The “Lever Press” value [12] was “significant increase; also recorded: significantly increasing; also recorded: statistical significance”, the “Rewards (break point)” value [12] was “significant increase; also recorded: significantly increasing; also recorded: statistical significance” and the “Sess. Duration” value [12] was 21.1. The “Lever Press” value [13] was 479.8 and the “Rewards (break point)” value [13] was 12.8.
For `C[C@H](N)Cc1ccccc1` [D-Amphetamine, reference compound], the “Rewards (break point)” value [14] was 17.5±0.9 and 17.5, the “Sess. Duration” value [14] was 52.4 and the “Rewards (break point)” value [15] was 12.2±1.2 and 12.2. For the same compound, the “Sess. Duration” value [15] was 44.5, the “Lever Press” value [16] was 893+131 and 893.0 and the “Rewards (break point)” value [16] was 14.7 ± 0.7 and 14.7. For the same compound, the “Sess. Duration” value [16] was 44.8.
